Results: the supplement of paper PMC10331698
± gives the standard deviation of the averaged measurements.

Assays:
Experiment in all cases: level (log10 ratio to DMSO vehicle control); higher = higher biomarker level / cell amount than vehicle control
Conditions in all cases: in DMSO
[1] = compound: COC(=O)CCC(F)(F)C(F)(F)C(F)(F)C(F)(F)F [Methyl 2H,2H,3H,3H-perfluoroheptanoate]
Description: (§1)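 BioMAP Diversity Plus panel of 12 human primary cell co-culture systems (3C, 4H, LPS, SAg, BT, BF4T, BE3C, CASM3C, HDF3CGF, KF3CT, MyoF, Mphg). Compounds were added 1 h before stimulation and left for 24 h (MyoF 48 h; BT 72 h for soluble read-outs or 6 d for IgG). Biomarkers were read by ELISA, cytotoxicity by SRB, PBMC viability and proliferation by Alamar Blue. Each well value was divided by the mean of 8 DMSO control wells on the same plate and log10 transformed; duplicate blinded samples were tested at 4 concentrations.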

Perfluoro-1-iodohexane = compound: FC(F)(F)C(F)(F)C(F)(F)C(F)(F)C(F)(F)C(F)(F)I [Perfluoro-1-iodohexane]
Description: as §1

[2] = compound: FC(F)(F)C(F)(F)C(F)(F)C(F)(F)C(F)(F)CCI [1-Iodo-1H,1H,2H,2H-perfluoroheptane]
Description: as §1

Heptafluorobutyramide = compound: NC(=O)C(F)(F)C(F)(F)C(F)(F)F [Heptafluorobutyramide]
Description: as §1

[3] = compound: NCC(F)(F)C(F)(F)C(F)(F)C(F)(F)C(F)(F)C(F)(F)C(F)(F)F [1H,1H-Perfluorooctylamine]
Description: as §1

[4] = compound: O=C(O)C(F)(F)OC(F)(F)C(F)(F)OC(F)(F)F [Perfluoro-3,6-dioxaheptanoic acid]
Description: as §1

Row | Test System | level (log10) ([1]; 6700 nM) | level (log10) ([1]; 20000 nM) | level (log10) ([1]; 60000 nM) | level (log10) (Perfluoro-1-iodohexane; 6700 nM) | level (log10) (Perfluoro-1-iodohexane; 20000 nM) | level (log10) (Perfluoro-1-iodohexane; 60000 nM) | level (log10) ([2]; 6700 nM) | level (log10) ([2]; 20000 nM) | level (log10) ([2]; 60000 nM) | level (log10) (Heptafluorobutyramide; 6700 nM) | level (log10) (Heptafluorobutyramide; 20000 nM) | level (log10) (Heptafluorobutyramide; 60000 nM) | level (log10) ([3]; 6700 nM) | level (log10) ([3]; 20000 nM) | level (log10) ([3]; 60000 nM) | level (log10) ([4]; 6700 nM) | level (log10) ([4]; 20000 nM) | level (log10) ([4]; 60000 nM)
1 | BF4T:CD54/ICAM-1 | -0.025 ± 0.034 | -0.0195 ± 0.019 | -0.026 ± 0.027 | -0.004 ± 0.0057 | 0.0045 ± 0.013 | 0 ± 0.0057 | -0.003 ± 0.0014 | -0.0215 ± 0.019 | -0.015 ± 0.0099 | -0.0065 ± 0.011 | -0.013 ± 0.0042 | 0.0015 ± 0.015 | 0.0025 ± 0.0021 | -0.0045 ± 0.00071 | 0.0075 ± 0.0021 | 0.0115 ± 0.005 | -0.009 ± 0.0028 | -0.012 ± 0.0071
2 | BF4T:CD90 | -0.009 ± 0.011 | -0.0045 ± 0.0064 | -0.032 ± 0.013 | -0.0085 ± 0.0035 | -0.002 ± 0.018 | -0.002 ± 0.011 | 0.0025 ± 0.00071 | -0.001 ± 0.0028 | 0.013 ± 0.0028 | 0.002 ± 0.013 | -0.008 ± 0.0085 | 0.003 ± 0.0042 | 0.015 ± 0.021 | 0.009 ± 0.0014 | 0.0065 ± 0.012 | -0.012 ± 0.0042 | 0.001 ± 0.0099 | -0.011 ± 0.0014
3 | BF4T:CD106/VCAM-1 | -0.001 ± 0.02 | 0.002 ± 0.0028 | 0.0015 ± 0.0064 | -0.0055 ± 0.0035 | -0.0215 ± 0.0035 | -0.0745 ± 0.019 | -0.029 ± 0.0071 | -0.0615 ± 0.0064 | -0.11 ± 0.012 | -0.006 ± 0.0014 | -0.013 ± 0.0085 | 0.021 ± 0.069 | 0.002 | 0.0045 ± 0.00071 | 0.0215 ± 0.032 | -0.035 ± 0.055 | -0.0205 ± 0.032 | -0.01 ± 0.017
4 | BF4T:CXCL8/IL-8 | 0.018 ± 0.018 | 0.0065 ± 0.0078 | 0.013 ± 0.037 | 0.0175 ± 0.021 | -0.009 ± 0.058 | 0.016 ± 0.058 | 0.0065 ± 0.016 | 0.0295 ± 0.018 | 0.0605 ± 0.011 | 0.032 ± 0.061 | 0.024 ± 0.057 | 0.0155 ± 0.012 | 0.039 ± 0.021 | 0.009 ± 0.014 | 0.039 ± 0.0085 | 0.044 ± 0.034 | 0.0475 ± 0.015 | 0.073 ± 0.045
